The source of these data is PMC11243419, “Ruthenium p-Cymene Complexes Incorporating Substituted Pyridine–Quinoline-Based Ligands: Synthesis, Characterization, and Cytotoxic Properties” (Molecules, 2024).

Where two headings read alike, the source gives them in different places.

Series [1] deals with carcinoma human T24 bladder cells. Details: method as in PMID 37569273. Conditions: T24 bladder cells vs other cell lines; cited from earlier work.
For series [2], the system named is HeLa cells. Conditions: cited from earlier work.
The subject of series [3] is HeLa cells. The series is described as follows: MTT cell viability assay, HeLa cells. The series is classed as cell-based, human. Conditions: 48 h incubation, mean ± SD, stock in DMSO (3-Cl and cisplatin in water). The method, then:
(§1) Cell viability tests of the ligand and metal precursors (pqhyme, pqca, pcqame, [Ru(η^6-p-cymene)(μ-Cl)Cl]2) and the ruthenium(II)–arene complexes 1-Cl, 2-Cl and 3-Cl were conducted in two cell lines, including epithelial-like HEK293T cells (human embryonic kidney cells) and tumor-derived HeLa cells (cervical cancer cells), by MTT colorimetric assay, after 48 h incubation (MTT = 3-(4,5-dimethylthiazol-2-yl)-2,5-diphenyl tetrazolium bromide). For comparison, the 3-PF6 analog was also studied. Generally, a 5 to 10 mM stock solution of the complexes in DMSO (H2O for cisplatin) was prepared and diluted appropriately to reach the final concentration reported in the Materials and Methods. HeLa cancer cells were chosen since this cell line is widely used in cytotoxicity studies while the non-cancerous HEK293T cell line was used for comparison. Cytotoxicity results of all substances studied in both cell lines expressed as IC50 mean values, are summarized in Table 1, including that of cisplatin, which served as control under the same conditions. The IC50 values were calculated using a dose–response model, which was obtained from sigmoidal fitting of dose–response curves.
(§2) The HEK293T cell line (immortalized human embryonic kidney cells) and the HeLa cell line (cervical cancer cells) were obtained from ATCC. Cells were cultured at 37 °C and 5% CO2 in high glucose Dulbecco’s modified Eagle’s medium (DMEM) containing 10% fetal bovine serum (FBS), penicillin (100 units/mL), and streptomycin (100 μg/mL).
(§3) Ruthenium complexes were diluted in stock solutions of 10 mM in dimethyl sulfoxide (DMSO). A similar concentration of cisplatin dissolved in H2O was used. Cells were seeded in sterile tissue culture 96-well plates at a density of 3,000 cells per well. After 24 h, the medium was removed and replaced with fresh media containing various concentrations (0.01 μΜ, 0.1 μΜ, 1 μΜ, 10 μΜ, 25 μΜ, 40 μΜ, 55 μΜ, 70 μΜ, 85 μΜ, and 100 μΜ) of the compounds to be tested and were further incubated for 48 h at 37 °C. DMSO was used as vehicle at ≤1%. Culture medium containing the compounds (or DMSO) was removed and 100 μL of 0.5 mg/mL MTT reagent (Applichem) diluted in DMEM was added to the cells for 3 h at 37 °C. After 3 h incubation, MTT was removed and 200 μL of DMSO was added. Absorbance values of formazan were measured at 540 nm using a BioTek Synergy H1 microplate reader (Agilent). All compounds were tested in triplicate. The results were statistically analyzed using the nonlinear regression by GraphPad PRISM (Version 9) to extract IC50 values.
For orientation: Tetrazolium assays rely on reduction of a dye to a coloured formazan, in cell work by metabolically active cells.

A further series deals with HEK293T cells. Briefly: MTT cell viability assay, HEK293T cells. The format is cell-based, human. To be noted: 48 h incubation, mean ± SD, stock in DMSO (3-Cl and cisplatin in water). The method, then: as §1, §2, §3
Series [4] in a line: Solution stability by UV-Vis spectroscopy. The format is physicochemical. Conditions: for Stability in the media used for the biological assays (UV-Vis): DMSO, ambient temperature. The method, then: To ensure the stability of the complexes for the in vitro cytotoxicity measurements, UV–Vis and ^1H NMR spectroscopic techniques were undertaken. UV–Vis spectra were recorded in DMSO (not dry), for complexes 1-Cl and 2-Cl (Figures S25–S27) and in water for complex 3-Cl (Figure 3), at ambient temperature, immediately after dissolution. The absorption spectra of 1-Cl and 2-Cl show a broad absorption band centered at ~ 435 nm, as reported for other ruthenium(II) half-sandwich arene complexes. For 3-Cl, this band becomes weaker and is blue-shifted to 422 nm. Ongoing from 1-Cl to 3-Cl, the set of high energy bands observed at 354 nm/296 nm (1-Cl), 357 nm/298 nm (2-Cl), and 357 nm/293 nm (3-Cl), are typical of metal-to-ligand charge transfer absorption bands (MLCT) and ligand-centered π–π* transitions. Within the series, ε values for these transitions range from 3000 to 9600 dm^3 mol^−1 cm^−1, with the methyl ester analog 3-Cl, displaying the higher extinction coefficient value of ∼9600 dm^3 mol^−1 cm^−1.
(§4) The cytotoxicity studies of the organometallic ruthenium(II) complexes 1-Cl, 2-Cl, and 3-PF6 were carried out in dimethyl sulfoxide (DMSO) while 3-Cl was dissolved in water. According to UV–Vis spectroscopy, complexes 1-Cl and 2-Cl are stable in the media that are used for the biological assays (Figures S25–S26), while 3-Cl undergoes hydrolysis approximately 3 h after with isosbestic points at 276 nm and 322 nm, respectively (Figure S27). […] In any case, for the biological assays, freshly prepared solutions were prepared that were utilized within approximately 5–10 min.

A further series in a line: Solubility (qualitative). The format is physicochemical. To be noted: solvents. The method, then:
The mononuclear organometallic complex 1-Cl comprising the pqhyme ligand was isolated as an orange–brown solid in high yield. […] Subsequent treatment with a saturated aqueous KPF6 solution afforded, via a metathesis reaction, the hexafluorido analog 1-PF6. Both complexes are air-stable in the solid state and melt with decomposition at 155 °C and 137 °C, respectively. The FT-IR spectra (ATR mode) of both complexes are almost identical, as expected for complexes that display very similar structures. For 1-Cl the presence of water of crystallization is evident from the intense and broad bands at ∼3350–3250 cm^−1 due to the antisymmetric and symmetric ν(O-H) stretching vibration modes. The O–H stretching vibration band from pending -CH2OH moiety is hampered within the broadness of the band reported above. Also, the strong band at approximately 1650 cm^−1 is due to the δ(H–O-H) bending mode. The characteristic bands at 3061 cm^−1, and in the region of 2998–2850 cm^−1 correspond to ν(C–H) aromatic and aliphatic stretching vibrations modes of the ligand, while the medium intensity band at ∼800 cm^−1 is typical for the stretching vibration mode of ν(Ru–C). In the region of 800-600 cm^−1, the spectrum is dominated by the very strong in-plane and out-of-plane deformation bands from the pyridine ring of pqhyme ligand. For 1-PF6, the two very strong bands at 840 cm^−1 and 557 cm^−1 are assigned to the ν3(P–F) and ν4(P–F) vibration modes of the PF6^− anion (Figure S1 of the Supplementary Materials).
The [Ru(η^6-p-cymene)(pqca)Cl]Cl complex 2-Cl was isolated in 85% yield as an orange–red air-stable solid that melts at 125 °C. Upon further heating, decomposition occurs at 150 °C, accompanied by gas evolution, leading to a black solid.
The [Ru(η^6-p-cymene)(pqcame)Cl]Cl analog 3-Cl was isolated almost quantitatively as a dark brown air-stable solid that decomposes at 111 °C. […] The FT-IR spectrum of 3-Cl is characterized by a strong asymmetric stretching vibration typical of the νas(C=O) of the ester moiety at 1722 cm^−1, shifted to higher wave numbers compared with 2-Cl. […]

Series [5] can be described thus: Solution stability by 1H NMR spectroscopy. The format is physicochemical.
Excerpt: The solution NMR spectra (^1H and ^13C{^1H}) of 1-Cl and 1-PF6 in CDCl3 feature the characteristic set of resonances of the pqhyme and p-cymene ligands supporting the proposed formulae of the compounds (Figures S2–S5 of the Supplementary Materials). Atom numbering for NMR assignment is included in Scheme 1. […] The separate and well-resolved resonance signals at δ 5.92–5.61 in a ratio of 1:1:1:1 (according to integration) are typical of the p-cymene ring protons. The characteristic singlet resonance signals at δ 5.47 for 1-Cl and 5.48 for 1-PF6 are attributed to the -CH2 protons of the pending -CH2OH moiety. These were upfield shifted compared to the p-cymene ligand of the metal precursor [43]. In addition, the septet resonance signals at δ 2.29 for 1-Cl and δ 2.44 for 1-PF6 are indicative of the -CH(CH3)2 proton, while the two […] at δ 0.87/0.91 (1-Cl) and δ 0.93/0.97 (1-PF6) can be assigned to the methyl protons of the isopropyl group. For 1-Cl, and after two days of standing in CDCl3, free p-cymene was detected (c.a. 2.6%) along with the formation of new unknown species. The ^1H NMR pattern of the spectrum remained practically unchanged (Figure S7).
The ^1H NMR spectrum of 2-Cl was recorded in DMSO-d6 at ambient temperature. […] The stability of 2-Cl in DMSO is shown below in Section 2.1.1. […] The singlet resonance at δ 8.94 is typical for H3 of the bidentate ligand, while the four separate doublet resonance signals in between δ 6.19, 6.13, 6.03, and 5.97 correspond to the p-cymene ring protons. […] In this region, the CH3 protons of the -CH-(CH3)2 moiety appear as two doublet resonances at δ 0.81 and 0.77, respectively. The ^13C NMR signals of 2-Cl were assigned by two-dimensional ^1H–^13C HSQC and ^1H–^13C HMBC methods and compared with the literature data from similar complexes. […] Analyzing the spectrum, the resonance signal at δ 166.31 is assigned to the carbon atom of the carboxylic acid group of pqca. In the aliphatic region of the spectrum, the carbon atoms from the CH3 groups of p-cymene ligand appear as intense singlets at δ 21.58, 21.21, and 18.18, respectively (Figures S12–S15).
as §4

Broadly, the IC50 is the point on the concentration scale where inhibition reaches its midpoint.

For the compound `Cc1ccc(C(C)C)cc1.O=C(O)c1ccnc(-c2cc(C(=O)O)ccn2)c1.[Cl-].[Cl-].[Ru+2]`, the “Selectivity among cell lines” value in series [1] is “high selectivity toward carcinoma human T24 bladder cells”.
As for `Cc1ccc(C(C)C)cc1.Nc1ccccc1O.[Cl][Ru][Cl]`, the IC50 with HeLa cells [2] is 82.9 µM.
Turning to `Cc1ccc(C(C)C)cc1.Nc1ccc(O)cc1.[Cl][Ru][Cl]`, in the series with HeLa cells [2], the IC50 was 171 µM.
As to “4-carboxymethyl-2-(pyridin-2-yl)quinoline [pqcame]”, the IC50 is 56.4 ± 12.7 µM with HeLa cells [3] and 48.9 ± 3.19 µM with HEK293T cells.
Taken in the same sequence, the figures for `Cc1ccc(C(C)C)cc1.Cc1ccc(C(C)C)cc1.[Cl][Ru][Cl].[Cl][Ru][Cl]` [[Ru(p-cymene)Cl2]2, [Ru(η^6-p-cymene)(μ-Cl)Cl]2] were 48.9 ± 1.73 µM and 48.3 ± 1.66 µM.
`N.N.[Cl][Pt][Cl]` [cis-platin, cisplatin, reference compound]: the 50% inhibitory concentration (IC50) came to 9.26 ± 1.09 µM in the series with HeLa cells [3] and 16.4 ± 7.62 µM in the series on HEK293T cells.
For `O=C(O)c1cc(-c2ccccn2)nc2ccccc12` [pqca, 4-carboxy-2-(pyridin-2-yl)quinoline], the IC50 in the series on HeLa cells [3] (Homo sapiens, HeLa) stood at 100 ± 3.47 µM; in the series with HEK293T cells (Homo sapiens, HEK-293T), 87.5 ± 1.3 µM.
The corresponding values for `OCc1cc(-c2ccccn2)nc2ccccc12` [pqhyme, 4-hydroxymethyl-2-(pyridin-2-yl)quinoline] are 12.8 ± 1.01 µM and 2.67 ± 1.23 µM.
As for [Ru(η^6-p-cymene)(pqca)Cl][Cl] [2-Cl], the “Stability in the media used for the biological assays (UV-Vis)” value in series [4] was “stable”. For the same compound, in “Solubility (qualitative)”, the Solubility result is “soluble in polar organic solvents (MeOH, EtOH, water) including DMSO and DMF”. Further, in the series with HeLa cells [3], the IC50 stood at 162 ± 21.3 µM. In addition, in series [5] (DMSO-d6), the “Period of 1H NMR monitoring showing stability” value was “more than 72 h” and the “Stability in DMSO-d6 (1H NMR)” value was “practically remains stable”. For the same compound, in the series with HEK293T cells, the IC50 came out at 180 ± 49.1 µM.
As for [Ru(η^6-p-cymene)(pqcame)Cl][Cl] [3-Cl], the “Time until hydrolysis (UV-Vis, isosbestic points at 276 nm and 322 nm)” value in series [4] (in water) is on record as “approximately 3 h”. Also, the Solubility entry in “Solubility (qualitative)” was “dissolves in water, DMSO, and other polar solvents”. Further, the IC50 was over 80 µM in the series on HeLa cells [3] and over 115 µM with HEK293T cells.
With “[Ru(η^6-p-cymene)(pqcame)Cl][PF6] [3-PF6]”, the IC50 amounted to 134 ± 3.3 µM in the series on HeLa cells [3] and 145 ± 16.2 µM in the series on HEK293T cells.
With [Ru(η^6-p-cymene)(pqhyme)Cl][Cl] [1-Cl], the “Stability in the media used for the biological assays (UV-Vis)” value in series [4] is “stable”. Also, the Solubility result in the series “Solubility (qualitative)” is “dissolves in DMSO, and water and is less soluble in CHCl3”. Also, the IC50 with HeLa cells [3] turned out to be 119 ± 1.29 µM. In addition, the “Stability in DMSO-d6 (1H NMR)” value in series [5] (DMSO-d6) is listed as “stable”. Moreover, in series [5] (after two days of standing in CDCl3), the “Free p-cymene detected (1H NMR)” value is reported as about 2.6%.
